Data reported in patent US7157083B2, “Compositions and methods for treating retroviral infections” (priority 1998, dated 2007).

Test system: IIIB (HIV IIIB virus)
Assay: Study 4 sensitization, Turpin and standard macrophages: RT activity after IIIB challenge
Type: cell-based
Experimental: Percent virus control (% VC) in the following tables is the mean RT activity (cpm) as a percentage of a virus control. Percent cell control (% CC) is the mean XTT absorbance as a percentage of a cell control.
Reverse transcriptase (RT) activity was measured in cell-free supernatants. Tritiated thymidine triphosphate (NEN) (TTP) was resuspended in distilled H2O at […]. Poly rA and oligo dT were prepared as a stock solution which was kept at −20° C. The RT reaction buffer was prepared fresh on a daily basis and consists of 125 μL 1.0 M EGTA, 125 μL d H2O, 110 μL 10% SDS, 50 μL 1.0 M Tris (pH 7.4), 50 μL 1.0 M DTT, and 40μ1.0 M MgCl2. These three solutions were mixed together in a ratio of 2 parts TTP, 1 part poly rA:oligo dT, and 1 part reaction buffer. Ten microliters of this reaction mixture was placed in a round bottom microtiter plate and 15 μL of virus containing supernatant was added and mixed. The plate was incubated at 37° C. in a water bath with a solid support to prevent submersion of the plate and incubated for 60 minutes. Following reaction, the reaction volume was spotted onto pieces of DE81 paper, washed 5 times for 5 minutes each in a 5% sodium phosphate buffer, 2 times for 1 minute each in distilled water, 2 times for 1 minute each in 70% ethanol, and then dried. Opti-Fluor O was added to each sample and incorporated radioactivity was quantitated utilizing a Wallace 1450 Microbetaplus liquid scintillation counter.
The macrophage plates were then washed with HBSS multiple times. Fresh mixed pha blast PBMCs (5×10e4/well) were placed on the macrophage cells, allowed to incubate for 72 hours and then harvested and reset in a fresh 96 well plate. The PBMCs were then challenged overnight with the respective virus (IIIB or Rojo) at a standard MOI for that virus. The PBMCs were 5× in plate spin washed with DPBS, incubated 24 hours, at which time 5×10e4 fresh pha blast PBMCs/well were added. The culture was incubated an additional 6 days and then assayed for RT activity.
Where viability corrections were conducted, they were performed by dividing the RT CPM value by the toxicity absorbance in order to compensate for well to well variations noted in the cell titer toxicity noted.

Hyaluronidase
RT activity % VC (0.097656 μg/mL, GP120IIIB Sensitized, Standard): 176.4% | RT activity % VC (0.097656 μg/mL, GP120IIIB Sensitized, Turpin): 89.0% | RT activity % VC (0.097656 μg/mL, IIIB Sensitized, Standard): 145.2% | RT activity % VC (0.097656 μg/mL, IIIB Sensitized, Turpin): 98.7% | RT activity % VC (0.195313 μg/mL, GP120IIIB Sensitized, Standard): 102.8% | RT activity % VC (0.195313 μg/mL, GP120IIIB Sensitized, Turpin): 108.1% | RT activity % VC (0.195313 μg/mL, IIIB Sensitized, Standard): 178.1% | RT activity % VC (0.195313 μg/mL, IIIB Sensitized, Turpin): 95.8% | RT activity % VC (0.390625 μg/mL, GP120IIIB Sensitized, Standard): 87.7% | RT activity % VC (0.390625 μg/mL, GP120IIIB Sensitized, Turpin): 83.5% | RT activity % VC (0.390625 μg/mL, IIIB Sensitized, Standard): 181.3% | RT activity % VC (0.78125 μg/mL, GP120IIIB Sensitized, Standard): 94.5% | RT activity % VC (0.78125 μg/mL, GP120IIIB Sensitized, Turpin): 105.6% | RT activity % VC (0.78125 μg/mL, IIIB Sensitized, Standard): 129.9% | RT activity % VC (0.78125 μg/mL, IIIB Sensitized, Turpin): 100.0% | RT activity % VC (1.5625 μg/mL, GP120IIIB Sensitized, Standard): 100.7% | RT activity % VC (1.5625 μg/mL, GP120IIIB Sensitized, Turpin): 58.0% | RT activity % VC (1.5625 μg/mL, IIIB Sensitized, Standard): 203.0% | RT activity % VC (1.5625 μg/mL, IIIB Sensitized, Turpin): 68.3% | RT activity % VC (3.125 μg/mL, GP120IIIB Sensitized, Standard): 82.3% | RT activity % VC (3.125 μg/mL, GP120IIIB Sensitized, Turpin): 71.2% | RT activity % VC (3.125 μg/mL, IIIB Sensitized, Standard): 120.8% | RT activity % VC (6.25 μg/mL, GP120IIIB Sensitized, Standard): 106.5% | RT activity % VC (6.25 μg/mL, GP120IIIB Sensitized, Turpin): 72.2% | RT activity % VC (6.25 μg/mL, IIIB Sensitized, Standard): 234.4% | RT activity % VC (6.25 μg/mL, IIIB Sensitized, Turpin): 70.0% | RT activity % VC (25 μg/mL, GP120IIIB Sensitized, Standard): 70.6% | RT activity % VC (25 μg/mL, GP120IIIB Sensitized, Turpin): 52.1% | RT activity % VC (25 μg/mL, IIIB Sensitized, Standard): 99.8% | RT activity % VC (25 μg/mL, IIIB Sensitized, Turpin): 23.6% | RT activity % VC (viability corrected, 0.097656 μg/mL, GP120IIIB Sensitized, Standard): 105.6% | RT activity % VC (viability corrected, 0.097656 μg/mL, GP120IIIB Sensitized, Turpin): 116.0% | RT activity % VC (viability corrected, 0.097656 μg/mL, IIIB Sensitized, Standard): 103.7% | RT activity % VC (viability corrected, 0.097656 μg/mL, IIIB Sensitized, Turpin): 95.3% | RT activity % VC (viability corrected, 0.195313 μg/mL, GP120IIIB Sensitized, Standard): 83.8% | RT activity % VC (viability corrected, 0.195313 μg/mL, GP120IIIB Sensitized, Turpin): 111.2% | RT activity % VC (viability corrected, 0.195313 μg/mL, IIIB Sensitized, Standard): 141.1% | RT activity % VC (viability corrected, 0.195313 μg/mL, IIIB Sensitized, Turpin): 110.9% | RT activity % VC (viability corrected, 0.390625 μg/mL, GP120IIIB Sensitized, Standard): 74.2% | RT activity % VC (viability corrected, 0.390625 μg/mL, GP120IIIB Sensitized, Turpin): 122.4% | RT activity % VC (viability corrected, 0.390625 μg/mL, IIIB Sensitized, Standard): 177.8% | RT activity % VC (viability corrected, 0.390625 μg/mL, IIIB Sensitized, Turpin): 98.3% | RT activity % VC (viability corrected, 0.78125 μg/mL, GP120IIIB Sensitized, Standard): 100.5% | RT activity % VC (viability corrected, 0.78125 μg/mL, GP120IIIB Sensitized, Turpin): 115.4% | RT activity % VC (viability corrected, 0.78125 μg/mL, IIIB Sensitized, Standard): 117.6% | RT activity % VC (viability corrected, 0.78125 μg/mL, IIIB Sensitized, Turpin): 95.5% | RT activity % VC (viability corrected, 1.5625 μg/mL, GP120IIIB Sensitized, Standard): 97.2% | RT activity % VC (viability corrected, 1.5625 μg/mL, GP120IIIB Sensitized, Turpin): 74.4% | RT activity % VC (viability corrected, 1.5625 μg/mL, IIIB Sensitized, Standard): 189.1% | RT activity % VC (viability corrected, 1.5625 μg/mL, IIIB Sensitized, Turpin): 79.6% | RT activity % VC (viability corrected, 3.125 μg/mL, GP120IIIB Sensitized, Standard): 76.1% | RT activity % VC (viability corrected, 3.125 μg/mL, GP120IIIB Sensitized, Turpin): 79.0% | RT activity % VC (viability corrected, 3.125 μg/mL, IIIB Sensitized, Standard): 115.2% | RT activity % VC (viability corrected, 3.125 μg/mL, IIIB Sensitized, Turpin): 106.2% | RT activity % VC (viability corrected, 6.25 μg/mL, GP120IIIB Sensitized, Standard): 95.2% | RT activity % VC (viability corrected, 6.25 μg/mL, GP120IIIB Sensitized, Turpin): 96.0%
